{
  "source": "paper PMC6594058",
  "about": "“A Research‐inspired biochemistry laboratory module–combining expression, purification, crystallization, structure‐solving, and characterization of a flavodoxin‐like protein” (Biochemistry and Molecular Biology Education, 2019)",
  "target": "T1, NrdI (Bacillus cereus, UniProt Q81G57)",
  "T1 construct": "untagged by purification route (IEX, SEC); pET-22b(+) XbaI/HindIII; E. coli BL21(DE3)",
  "T1 sequence (Q81G57 1-119)": "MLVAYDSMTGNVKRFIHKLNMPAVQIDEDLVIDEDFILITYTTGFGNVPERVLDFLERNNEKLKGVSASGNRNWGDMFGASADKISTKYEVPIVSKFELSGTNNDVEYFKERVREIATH",
  "experiment": "X-ray crystallography (students re-solve previously collected semiquinone data); UV-vis of co-purified cofactor with dithionite titration",
  "format": "binding",
  "details": "crystal in semiquinone state (FMNH•); 1.15 Å; UV-vis in 50 mM Tris-HCl pH 7.5; native bound cofactor",
  "data": [
    {"smiles": "Cc1cc2nc3c(=O)[nH]c(=O)nc-3n(C[C@H](O)[C@H](O)[C@H](O)COP(=O)(O)O)c2cc1C", "note": "[FMN]", "values": [
      {"measurement": "X-ray crystallography (students re-solve previously collected semiquinone data);", "result": "Overall structure of the B. cereus NrdI, with the FMN cofactor represented as sticks"}
    ]}
  ]
}
